The text below walks through data of patent US20250115598A1 (Anaxis Pharma Pty Ltd, priority 2021, published 2025).

One test deals with human MLKL (full length) (Homo sapiens (Human), UniProt Q8NB16). Description: KINOMEscan binding assay, human MLKL (full length). Summed up:
(§1)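 In this assay, compounds displace DNA- or phage-tagged kinase from an immobilized ligand, and eluted kinase is quantified by qPCR.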

In a further test the target is human RIPK1 (Homo sapiens (Human), UniProt Q13546). Nature of the test: KINOMEscan binding assay, human RIPK1. Conditions: Table 21. The method in brief:
as §1

The target in the next test is human RIPK3 (Homo sapiens (Human), UniProt Q9Y572). Description: KINOMEscan binding assay, human RIPK3. Conditions: Table 21. Summed up: as §1
The target in another test is mouse MLKL (full length) (Mus musculus (Mouse), UniProt Q9D2Y4). Nature of the test: KINOMEscan binding assay, mouse MLKL (full length). Conditions: Table 22. The procedure: Binding affinity of the test compounds for human MLKL (full length), mouse MLKL (full length), human RIPK1 and human RIPK3 was determined using the KINOMEscan™ technology developed by DiscoverX (USA; http://www.discoverx.com). The assay was conducted according to manufacturer instructions.
Kinase assays. For most assays, kinase-tagged T7 phage strains were grown in parallel in 24-well blocks in an E. coli host derived from the BL21 strain. E. coli were grown to log-phase and infected with T7 phage from a frozen stock (multiplicity of infection=0.4) and incubated with shaking at 32° C. until lysis (90-150 minutes). The lysates were centrifuged (6,000×g) and filtered (0.2 μm) to remove cell debris. The remaining kinases were produced in HEK-293 cells and subsequently tagged with DNA for qPCR detection. […] The liganded beads were blocked with excess biotin and washed with blocking buffer (SeaBlock (Pierce), 1% BSA, 0.05% Tween 20, 1 mM DTT) to remove unbound ligand and to reduce non-specific phage binding. […] All reactions were performed in polypropylene 384-well plates in a final volume of 20 μL. […] The kinase concentration in the eluates was measured by qPCR.
An 11-point 3-fold serial dilution of each test compound was prepared in 100% DMSO at 100× final test concentration and subsequently diluted to 1× in the assay (final DMSO concentration=1%). Most Kos were determined using a compound top concentration=30,000 nM.
KD for each test compound was calculated with a standard dose-response curve using the Hill equation (equation (1)): […]
The Hill Slope was set to −1.
Curves were fitted using a non-linear least square fit with the Levenberg-Marquardt algorithm.

The subject of test [1] is Immortalised Mouse Dermal Fibroblasts (MDFs). Description: Cellular assay: inhibition of TSI induced necroptosis, CellTitre-Glo viability. Conditions: Mus musculus, Fibroblast; MDF, 3 hours TSI cocktail, Table 24; read-out: Inhibition of TSI-induced necroptosis (IC50 cell-based assay) in MDF. Summed up: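 Necroptosis induced for 3 h with TSI: rhTNF 100 ng/ml, Smac mimetic 500 nM, caspase inhibitor IDN-6556 10 μM. Mouse dermal fibroblasts had received compound (36 μM top, ten three-fold steps) 30 min beforehand. ATP-based viability scaled between untreated and TSI-only wells; IC50 taken as 4-parameter curve inflection.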

For test [2], the system named is U937 human histiocytic leukemia cell line. Nature of the test: Cellular assay: inhibition of TSQ induced necroptosis, CellTitre-Glo viability. Conditions: Homo sapiens, U-937; U937 cells, 48 hours, TSQ cocktail, Table 26; read-out: Inhibition of TSQ-induced necroptosis (IC50 cell-based assay). The method in brief: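 U937 cells (20,000/well) treated with compound (10-point, 36 μM top, 1:3) plus TSQ cocktail (hTNF-Fc 100 ng/ml, Smac mimetic 500 nM, Q-VD-OPh 10 μM), 48 h at 37° C., 0.3% DMSO. Viability by CellTitre-Glo ATP luminescence; counter screen without TSQ measured compound-only effects on viability.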

In the next test the test system is U937 cells. Nature of the test: Counter screen: cell viability without the TSQ cocktail (off-target effect). Set-up: species or system human. Conditions: Homo sapiens, U-937, Table 26, read-out: Off-target effect (IC50 cell-based assay). The method in brief:
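U937 cells (20000/well, HT-RPMI + 7.4% FBS) treated with compound (10-point 1:3 dilution from 36 μM, 0.3% DMSO) without the TSQ cocktail for 48 h at 37 °C/5% CO2. Viability read as ATP by CellTiter-Glo luminescence, flagging off-target cytotoxicity.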
A general note: The purpose of a counterscreen is to sort out artefacts and off-target activity.

A further test addresses endogenous MLKL in U937 (Homo sapiens (Human), UniProt Q8NB16). Description: Degradation assay: endogenous MLKL in U937 (western blot). As to conditions: U937, 24 h incubation, read-out: Degradation of endogenous MLKL in U937 (DC50 cell-based assay). The method in brief: (§2)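 Western blot band intensity of MLKL, adjusted to GAPDH loading and normalized to DMSO-only wells, gave percent degradation. Compound exposure lasted 24 h at final concentrations of 10–0.016 μM in 1:5 steps, in mouse dermal fibroblasts or human U937 cells.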

A further test concerns the target endogenous MLKL in MDF (Mus musculus (Mouse), UniProt Q9D2Y4). Description: Degradation assay: endogenous MLKL in MDF (western blot). As to conditions: MDF cells, 24 h incubation with compound, MLKL adjusted for loading with GAPDH, normalized to DMSO only control, read-out: Degradation of endogenous MLKL in MDF (DC50 cell-based assay). The method in brief:
as §2
On the technique in general: In western blotting, separated proteins are transferred to a membrane and probed.

The mark [3] stands for this setting: KINOMEscan, Table 21, read-out: Human MLKL (full-length) (KD).

Read-outs that look alike come from different tables or passages of the source.

For orientation: Kd means the equilibrium constant for the complex coming apart. In general, IC50 refers to the concentration needed to halve the response being measured. A word on the DC50: it is the concentration at which degradation of the target reaches its halfway point.

human RIPK3, sequence (Q9Y572 whole entry): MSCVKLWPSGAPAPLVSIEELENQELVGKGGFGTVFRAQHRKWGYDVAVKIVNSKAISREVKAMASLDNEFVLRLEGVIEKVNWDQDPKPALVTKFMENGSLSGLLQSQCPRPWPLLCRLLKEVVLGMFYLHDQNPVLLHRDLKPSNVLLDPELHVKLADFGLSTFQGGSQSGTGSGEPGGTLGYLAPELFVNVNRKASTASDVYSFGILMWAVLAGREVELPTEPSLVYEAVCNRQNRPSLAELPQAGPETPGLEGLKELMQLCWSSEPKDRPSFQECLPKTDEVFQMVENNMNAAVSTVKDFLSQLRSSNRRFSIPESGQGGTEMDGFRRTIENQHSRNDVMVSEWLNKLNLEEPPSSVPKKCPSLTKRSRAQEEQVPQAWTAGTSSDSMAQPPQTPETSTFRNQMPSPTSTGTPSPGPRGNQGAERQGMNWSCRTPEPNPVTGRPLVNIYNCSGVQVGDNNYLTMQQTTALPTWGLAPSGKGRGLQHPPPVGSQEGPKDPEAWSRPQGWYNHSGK
human MLKL (full length), sequence (Q8NB16 whole entry): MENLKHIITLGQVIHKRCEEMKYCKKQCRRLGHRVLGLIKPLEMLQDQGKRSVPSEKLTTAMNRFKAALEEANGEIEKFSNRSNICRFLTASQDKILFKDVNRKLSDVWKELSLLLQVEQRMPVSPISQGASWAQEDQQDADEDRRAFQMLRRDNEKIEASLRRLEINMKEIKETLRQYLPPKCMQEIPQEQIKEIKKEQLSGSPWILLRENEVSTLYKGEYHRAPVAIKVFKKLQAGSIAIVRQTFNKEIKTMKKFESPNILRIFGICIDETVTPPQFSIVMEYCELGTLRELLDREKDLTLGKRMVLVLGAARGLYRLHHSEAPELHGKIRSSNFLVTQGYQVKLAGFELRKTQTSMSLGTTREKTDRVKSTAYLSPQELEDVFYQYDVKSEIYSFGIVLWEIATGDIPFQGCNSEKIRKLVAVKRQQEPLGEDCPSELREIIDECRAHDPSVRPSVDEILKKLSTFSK
mouse MLKL (full length), sequence (Q9D2Y4 whole entry): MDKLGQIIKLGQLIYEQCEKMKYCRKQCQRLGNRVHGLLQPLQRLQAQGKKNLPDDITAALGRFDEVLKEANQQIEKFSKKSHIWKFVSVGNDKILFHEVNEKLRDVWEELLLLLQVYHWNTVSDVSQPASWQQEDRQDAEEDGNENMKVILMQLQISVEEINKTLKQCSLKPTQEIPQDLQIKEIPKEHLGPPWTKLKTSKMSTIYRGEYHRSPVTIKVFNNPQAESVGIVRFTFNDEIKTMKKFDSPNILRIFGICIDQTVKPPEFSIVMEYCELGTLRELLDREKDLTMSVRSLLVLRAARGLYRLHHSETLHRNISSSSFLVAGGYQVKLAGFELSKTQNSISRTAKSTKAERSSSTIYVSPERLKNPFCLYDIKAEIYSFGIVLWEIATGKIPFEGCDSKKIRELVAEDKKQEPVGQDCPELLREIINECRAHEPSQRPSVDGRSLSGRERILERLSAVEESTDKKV
human RIPK1, sequence (Q13546 whole entry): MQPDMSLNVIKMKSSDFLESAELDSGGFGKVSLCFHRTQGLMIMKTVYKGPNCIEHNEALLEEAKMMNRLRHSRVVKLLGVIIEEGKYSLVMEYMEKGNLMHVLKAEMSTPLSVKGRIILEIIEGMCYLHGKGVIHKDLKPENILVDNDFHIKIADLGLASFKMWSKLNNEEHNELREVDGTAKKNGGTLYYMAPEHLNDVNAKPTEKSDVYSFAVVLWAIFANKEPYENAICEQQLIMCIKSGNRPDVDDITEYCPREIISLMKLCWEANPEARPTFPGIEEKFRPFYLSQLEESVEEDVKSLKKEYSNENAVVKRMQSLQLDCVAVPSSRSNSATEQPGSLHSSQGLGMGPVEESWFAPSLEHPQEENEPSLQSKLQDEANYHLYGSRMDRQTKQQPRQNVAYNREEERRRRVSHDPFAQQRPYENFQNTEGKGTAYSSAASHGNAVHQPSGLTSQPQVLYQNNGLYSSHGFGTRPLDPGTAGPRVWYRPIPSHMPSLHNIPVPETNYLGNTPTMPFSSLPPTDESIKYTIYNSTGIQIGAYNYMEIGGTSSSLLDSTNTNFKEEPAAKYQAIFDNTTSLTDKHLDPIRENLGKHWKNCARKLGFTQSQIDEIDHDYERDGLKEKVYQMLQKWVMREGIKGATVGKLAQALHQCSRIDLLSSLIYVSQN
endogenous MLKL in U937, sequence (Q8NB16 whole entry): as the sequence (Q8NB16 whole entry) above
endogenous MLKL in MDF, sequence (Q9D2Y4 whole entry): as the sequence (Q9D2Y4 whole entry) above

Consider `Cn1nc(-c2ccc(NS(=O)(=O)C(F)F)c(OCc3ccc(F)cc3)c2)c2c(N)ncc(-c3cnn(C4CCOCC4)c3)c21` [Compound 13, N-(4-(4-amino-1-methyl-7-(1-(tetrahydro-2H-pyran-4-yl)-1H-pyrazol-4-yl)-1H-pyrazolo[4,3-c]pyridin-3-yl)-2-((4-fluoro-benzyl)oxy)phenyl)-1,1-difluoromethane-sulfonamide], for which the Kd at human MLKL (full length) (setting [3]) is below 0.001 µM; at human RIPK1, above 10 µM; on human RIPK3, above 10 µM; at mouse MLKL (full length), below 0.001 µM.
As to `C[C@H](Oc1cc(-c2nn(C)c3c(-c4cnn(C)c4)cnc(N)c23)ccc1NS(=O)(=O)C(F)F)c1ccc(F)cc1` [Compound 20, (S)-N-(4-(4-amino-1-methyl-7-(1-methyl-1H-pyrazol-4-yl)-1H-pyrazolo[4,3-c]pyridin-3-yl)-2-(1-(4-fluorophenyl)ethoxy)phenyl)-1,1-difluoromethanesulfonamide], the dissociation constant Kd at human MLKL (full length) (setting [3]) was below 0.001 µM; at human RIPK1 it was above 10 µM; at human RIPK3, above 10 µM; on mouse MLKL (full length) it was below 0.001 µM.
As to `C[C@H](Oc1cc(-c2nn(C)c3c(-c4cnn(C5CCOCC5)c4)cnc(N)c23)ccc1NS(=O)(=O)C(F)F)c1ccc(F)cc1` [Compound 19], the Kd on human MLKL (full length) (setting [3]) and at mouse MLKL (full length) was below 0.001 µM each time. Also, in test [1], the IC50 is below 1 µM.
As to `C[C@H](Oc1cc(-c2coc3c(-c4cnn(C5CCOCC5)c4)cnc(N)c23)ccc1NS(=O)(=O)C(F)F)c1ccc(F)cc1` [Compound 7, (S)-N-(4-(4-amino-7-(1-(tetrahydro-2H-pyran-4-yl)-1H-pyrazol-4-yl)furo[3,2-c]pyridin-3-yl)-2-(1-(4-fluoro-phenyl)eth-oxy)phenyl)-1,1-difluoro-methanesulfonamide], the figures for the Kd at human RIPK1, at human RIPK3 and at mouse MLKL (full length) were above 10 µM, above 10 µM and below 0.001 µM, respectively.
For the molecule `Nc1ncc(-c2cnn(C3CCOCC3)c2)c2occ(-c3ccc(NS(=O)(=O)C(F)F)c(OCc4ccc(F)cc4)c3)c12` [Compound 5, N-(4-(4-amino-7-(1-(tetrahydro-2H-pyran-4-yl)-1H-pyrazol-4-yl)furo[3,2-c]pyridin-3-yl)-2-((4-fluorobenzyl)oxy)phenyl)-1,1-difluoro-methanesulfonamide], the Kd at human MLKL (full length) (setting [3]) and on mouse MLKL (full length) was below 0.001 µM each time.
As for `C[C@H](Oc1cc(-c2nn(C)c3c(-c4cnn(CCN5CCN(C)CC5)c4)cnc(N)c23)ccc1NS(=O)(=O)C(F)F)c1ccc(F)cc1` [Compound 60, (S)-N-(4-(4-amino-1-methyl-7-(1-(2-(4-metyhlpiperazin-1-yl)ethyl)-1H-pyrazol-4-yl)-1H-pyrazolo[4,3-c]pyridin-3-yl)-2-(1-(4-fluorophenyl)ethoxy)phenyl)-1,1-difluoromethanesulfonamide], the Kd at human RIPK1 is above 10 µM; on human RIPK3 it was above 10 µM; at mouse MLKL (full length) it was below 0.001 µM.
Consider `C[C@H](Oc1cc(-c2coc3c(-c4cnn(C)c4)cnc(N)c23)ccc1NS(=O)(=O)C(F)F)c1ccc(F)cc1` [Compound 8, (S)-N-(4-(4-amino-7-(1-methyl-1H-pyrazol-4-yl)furo[3,2-c]pyridin-3-yl)-2-(1-(4-fluorophenyl)eth-oxy)phenyl)-1,1-difluoromethane-sulfonamide], for which the Kd is below 0.001 µM on human MLKL (full length) (setting [3]), above 10 µM on human RIPK1, above 10 µM at human RIPK3 and below 0.001 µM at mouse MLKL (full length).
For the molecule `Cc1ncsc1-c1ccc(CNC(=O)[C@@H]2C[C@@H](O)CN2C(=O)[C@@H](NC(=O)CCCCCCn2cc(-c3cnc(N)c4c(-c5ccc(NS(=O)(=O)C(F)F)cc5)nn(C)c34)cn2)C(C)(C)C)cc1` [Compound 1022, (2S,4R)-1-[(2S)-2-[7-(4-{4-amino-3-[4-(difluoromethanesulfonamido)phenyl]-1-methyl-1H-pyrazolo[4,3-c]pyridin-7-yl}-1H-pyrazol-1-yl)heptanamido]-3,3-dimethylbutanoyl]-4-hydroxy-N-{[4-(4-methyl-1,3-thiazol-5-yl)phenyl]methyl}pyrrolidine-2-carboxamide], the equilibrium dissociation constant (Kd) on human MLKL (full length) (hMLKL, Table 25, read-out: MLKL (KD)) was below 0.01 µM. The IC50 is below 1 µM in [2] and above 10 µM with U937 cells. For the same molecule, the DC50 on endogenous MLKL in U937 and on endogenous MLKL in MDF was below 1 µM throughout.
On to `C[C@H](Oc1cc(-c2nn(C)c3c(-c4cnn(CCO)c4)cnc(N)c23)ccc1NS(=O)(=O)C(F)F)c1ccc(F)cc1` [Compound 15, (S)-N-(4-(4-amino-7-(1-(2-hydroxyethyl)-1H-pyrazol-4-yl)-1-methyl-1H-pyrazolo[4,3-c]pyridin-3-yl)-2-(1-(4-fluorophenyl)ethoxy)phenyl)-1,1-difluoromethanesulfonamide], for which the Kd was below 0.001 µM on human MLKL (full length) (setting [3]), above 10 µM on human RIPK1, above 10 µM on human RIPK3 and below 0.001 µM at mouse MLKL (full length).
